The record followed here is patent US6358978B1, “Substituted benzimidazoles” (Aventis Pharma Deutschland GmbH, priority 1999, dated 2002).

One data set deals with T1, casein kinase II (CK II) (Homo sapiens, UniProt P68400).
T1 construct: purchased Upstate Biotechnology
In words: CK II kinase test (Upstate Biotechnology kit). It counts as biochemical. Conditions: substance concentration of 100 μM; ATP 50 μM. How it is done:
(§1) cAMP-dependent protein kinase (PKA), protein kinase C (PKC), and casein kinase II (CK II) were determined using the appropriate test kits of Upstate Biotechnology according to the procedure of the manufacturer at an ATP concentration of 50 μM. Differently, no phosphocellulose filter, but MultiScreen plates (Millipore; phosphocellulose MS-PH, cat. MAPHNOB10) with the corresponding aspiration system were used. The plates or membranes (IκB kinase) were then measured in a Wallac Microβeta scintillation counter. 100 μM of the test substance were employed in each case.
(§2) Each substance was tested in a duplicate determination. The mean value of the blank (without enzyme) is subtracted from the mean values (enzyme with and without substances) and the % inhibition is calculated. IC50 calculations were carried out using the software package GraFit 3.0.

The target in data set [1] is T2, cAMP-dependent protein kinase (PKA) (Homo sapiens, UniProt P17612).
T2 construct: purchased Upstate Biotechnology
Kind of data set: PKA kinase test (Upstate Biotechnology kit). Conditions: substance concentration of 100 μM; ATP 50 μM. It counts as biochemical. How it is done: as §1, §2

For the next data set, the target named is T3, IκB kinase (Homo sapiens, UniProt O14920+O15111).
T3 construct: The kinase was purified from HeLa cell extracts; endogenous in cells; host or cells: HeLa cell extracts
In words: IκB kinase filter test. Format: biochemical. Conditions: kinase purified from HeLa cell extracts; 50 μM ATP; substrate peptide 20 μM.

The subject of another data set is protein kinase C (PKC). In words: PKC kinase test (Upstate Biotechnology kit). It counts as biochemical. Conditions: substance concentration of 100 μM; ATP 50 μM. The protocol:
as §1, §2

Structures are written as SMILES. pIC50: −log10 of the molar value. Structures can show the parent of a compound that is named as a salt.

T3 sequence (O14920 whole entry): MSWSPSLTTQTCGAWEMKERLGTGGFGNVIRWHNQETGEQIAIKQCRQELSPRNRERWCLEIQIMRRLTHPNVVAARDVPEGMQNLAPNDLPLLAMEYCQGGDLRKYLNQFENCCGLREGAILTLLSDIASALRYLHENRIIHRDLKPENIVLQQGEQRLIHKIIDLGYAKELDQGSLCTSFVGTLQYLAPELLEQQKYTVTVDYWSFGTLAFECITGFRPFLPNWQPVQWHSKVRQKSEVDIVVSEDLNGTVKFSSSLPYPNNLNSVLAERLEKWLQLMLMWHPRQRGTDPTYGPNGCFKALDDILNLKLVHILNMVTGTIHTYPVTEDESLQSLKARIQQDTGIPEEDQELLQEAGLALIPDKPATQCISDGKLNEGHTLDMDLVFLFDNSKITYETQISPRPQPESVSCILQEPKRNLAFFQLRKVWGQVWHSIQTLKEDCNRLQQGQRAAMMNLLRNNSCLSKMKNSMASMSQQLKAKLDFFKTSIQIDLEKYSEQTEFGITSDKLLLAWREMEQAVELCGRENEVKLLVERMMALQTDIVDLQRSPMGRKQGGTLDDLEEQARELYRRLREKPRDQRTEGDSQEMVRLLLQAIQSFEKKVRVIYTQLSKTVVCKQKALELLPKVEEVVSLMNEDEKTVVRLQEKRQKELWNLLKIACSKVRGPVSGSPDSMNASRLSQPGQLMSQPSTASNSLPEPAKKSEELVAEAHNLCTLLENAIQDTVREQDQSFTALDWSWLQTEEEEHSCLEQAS
T3 sequence (O15111 whole entry): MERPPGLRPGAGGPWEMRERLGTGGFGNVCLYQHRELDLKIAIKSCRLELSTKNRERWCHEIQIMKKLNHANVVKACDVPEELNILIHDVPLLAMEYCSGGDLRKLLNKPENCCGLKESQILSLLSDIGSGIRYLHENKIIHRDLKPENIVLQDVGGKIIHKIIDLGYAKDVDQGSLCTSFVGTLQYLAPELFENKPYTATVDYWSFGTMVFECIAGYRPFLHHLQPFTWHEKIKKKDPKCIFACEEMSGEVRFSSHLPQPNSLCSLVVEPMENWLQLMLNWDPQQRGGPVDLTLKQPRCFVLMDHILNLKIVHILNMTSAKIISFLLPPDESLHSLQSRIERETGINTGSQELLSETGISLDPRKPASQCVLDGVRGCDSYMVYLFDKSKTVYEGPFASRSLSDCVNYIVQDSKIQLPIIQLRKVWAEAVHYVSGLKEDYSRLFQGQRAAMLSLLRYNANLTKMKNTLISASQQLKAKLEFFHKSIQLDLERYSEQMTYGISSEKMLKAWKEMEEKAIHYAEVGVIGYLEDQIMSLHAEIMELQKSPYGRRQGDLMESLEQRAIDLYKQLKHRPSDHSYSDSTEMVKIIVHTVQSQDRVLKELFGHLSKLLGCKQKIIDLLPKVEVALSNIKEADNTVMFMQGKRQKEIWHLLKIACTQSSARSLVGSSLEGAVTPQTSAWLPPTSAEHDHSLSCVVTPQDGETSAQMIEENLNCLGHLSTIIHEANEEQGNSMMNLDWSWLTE
T3 sequence (Q9Y6K9 whole entry partner): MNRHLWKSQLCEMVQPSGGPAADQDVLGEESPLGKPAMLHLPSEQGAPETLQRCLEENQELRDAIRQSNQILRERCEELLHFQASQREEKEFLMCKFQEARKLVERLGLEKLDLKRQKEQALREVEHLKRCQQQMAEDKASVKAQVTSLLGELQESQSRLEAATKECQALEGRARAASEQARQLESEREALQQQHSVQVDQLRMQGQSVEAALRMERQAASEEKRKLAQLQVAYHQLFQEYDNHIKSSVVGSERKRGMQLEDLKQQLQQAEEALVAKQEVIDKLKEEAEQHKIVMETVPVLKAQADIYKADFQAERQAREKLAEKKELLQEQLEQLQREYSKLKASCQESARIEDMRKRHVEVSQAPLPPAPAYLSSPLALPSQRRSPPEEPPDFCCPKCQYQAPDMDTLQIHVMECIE
T1 sequence (P68400 whole entry): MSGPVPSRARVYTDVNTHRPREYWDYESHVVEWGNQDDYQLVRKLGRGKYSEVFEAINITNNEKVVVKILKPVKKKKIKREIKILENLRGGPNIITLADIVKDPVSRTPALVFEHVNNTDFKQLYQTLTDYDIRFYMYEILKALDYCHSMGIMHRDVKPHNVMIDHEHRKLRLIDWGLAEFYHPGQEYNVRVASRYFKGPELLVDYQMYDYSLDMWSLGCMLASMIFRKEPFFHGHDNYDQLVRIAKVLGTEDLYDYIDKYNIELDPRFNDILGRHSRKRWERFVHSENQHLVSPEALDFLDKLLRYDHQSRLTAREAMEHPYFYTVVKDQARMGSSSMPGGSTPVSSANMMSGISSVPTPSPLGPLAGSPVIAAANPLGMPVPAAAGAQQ
T1 sequence (P67870 whole entry partner): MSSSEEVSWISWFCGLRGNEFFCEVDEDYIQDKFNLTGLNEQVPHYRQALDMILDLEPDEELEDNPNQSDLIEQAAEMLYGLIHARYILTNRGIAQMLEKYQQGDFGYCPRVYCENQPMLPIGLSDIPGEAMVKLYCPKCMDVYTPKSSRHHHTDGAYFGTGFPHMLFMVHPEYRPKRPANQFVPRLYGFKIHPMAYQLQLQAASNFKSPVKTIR

One may read the melting point as the temperature of the solid-liquid transition. Take `CCN(C[C@H](NC(=O)c1ccc2[nH]c(-c3ccncc3)nc2c1)C(=O)O)c1ccccc1` (as salt: trifluoroacetate) [Example 195, 3-Phenylaminoethyl-2-[(2-pyridin-4-yl-1H-benzimidazole-5-carbonyl)-amino]propionic acid trifluoroacetate]: the melting point is ~ 258 °C (dec.).

In general, inhibition refers to how much of the control response was suppressed. The pIC50 is −log10 of the IC50, conventionally taken in molar units. A higher pIC50 goes with a low IC50. As to `O=C(N[C@@H](Cc1ccc(F)cc1F)C(=O)O)c1ccc2nc(-c3ccncc3)[nH]c2c1` [Example 5], the inhibition at 100 µM came out at 19% on casein kinase II (CK II) and 0% in data set [1]. At IκB kinase, this compound gave a pIC50 of 4.60. Also, the PKC % inhibition in the data set with protein kinase C (PKC) came out at 16%.

Consider `O=C(N[C@H](Cc1ccc(Cl)cc1)C(=O)O)c1ccc2nc(-c3ccncc3)[nH]c2c1` [Example 6], for which the inhibition at 100 µM on casein kinase II (CK II) was determined as 14%; in data set [1], 0%. On IκB kinase, this compound showed a pIC50 of 4.14. The PKC % inhibition with protein kinase C (PKC) is 46%.

Regarding `O=C(N[C@@H](Cc1ccc(F)cc1)C(=O)O)c1ccc2nc(-c3ccncc3)[nH]c2c1` [Example 7], the inhibition at 100 µM on casein kinase II (CK II) is 10%; in data set [1], 0%. This compound also gave a pIC50 at IκB kinase of 4.66. Also, the PKC % inhibition in the data set on protein kinase C (PKC) worked out at 15%.

With `NC(=O)[C@H](Cc1cccc(C(F)(F)F)c1)NC(=O)c1ccc2nc(-c3ccncc3)[nH]c2c1` [Example 8], the inhibition at 100 µM at casein kinase II (CK II) amounted to 7%; in data set [1], 0%. Further, the pIC50 against IκB kinase is 5.40. For the same compound, the PKC % inhibition in the data set on protein kinase C (PKC) was 9%.

Turning to `NC(=O)[C@H](Cc1cccs1)NC(=O)c1ccc2nc(-c3ccncc3)[nH]c2c1` [Example 11], the inhibition at 100 µM (at casein kinase II (CK II); in data set [1]) was 0% throughout. This compound also showed a pIC50 on IκB kinase of 5.15. In addition, the PKC % inhibition in the data set on protein kinase C (PKC) is reported as 16%.

In the case of `NC(=O)[C@H](Cc1cccnc1)NC(=O)c1ccc2nc(-c3ccncc3)[nH]c2c1` [Example 12], the inhibition at 100 µM (at casein kinase II (CK II); in data set [1]) was 0% each time. The same compound showed a pIC50 at IκB kinase of 4.38. The compound further registered a PKC % inhibition with protein kinase C (PKC) of 16%.

With `NC(=O)[C@H](Cc1ccc(C(=O)O)cc1)NC(=O)c1ccc2nc(-c3ccncc3)[nH]c2c1` [Example 14], the inhibition at 100 µM (at casein kinase II (CK II); in data set [1]) was 0% in each case. The compound further gave a pIC50 at IκB kinase of 5.15. In the data set with protein kinase C (PKC), the PKC % inhibition was found to be 0%.

Take `N#Cc1ccc(C[C@H](NC(=O)c2ccc3nc(-c4ccncc4)[nH]c3c2)C(N)=O)cc1` [Example 16]: the inhibition at 100 µM at casein kinase II (CK II) was 4%; in data set [1], 0%. At IκB kinase, this compound gave a negative logarithm of the IC50 (pIC50) of 5.05. The PKC % inhibition in the data set with protein kinase C (PKC) is given as 11%.

As for `NC(=O)[C@H](Cc1ccc2ccccc2n1)NC(=O)c1ccc2nc(-c3ccncc3)[nH]c2c1` [Example 19], the values for the inhibition at 100 µM (against casein kinase II (CK II); in data set [1]) were 70% and 36%, respectively. Moreover, at IκB kinase, the pIC50 was 6.00. In the data set with protein kinase C (PKC), this compound returned a PKC % inhibition of 63%.

With `NC(=O)[C@H](Cc1cc(Br)c(O)c(Br)c1)NC(=O)c1ccc2nc(-c3ccncc3)[nH]c2c1` [Example 20], the inhibition at 100 µM on casein kinase II (CK II) was determined as 60%; in data set [1] it was 26%. In addition, the pIC50 at IκB kinase was 4.47. Further, the PKC % inhibition in the data set on protein kinase C (PKC) is 31%.

Consider `NC(=O)[C@H](Cc1cccs1)NC(=O)c1cccc2nc(-c3ccncc3)[nH]c12` [Example 34], for which the pIC50 against IκB kinase was 4.80.

Compound `NC(=O)[C@H](CC1CC1)NC(=O)c1cccc2nc(-c3ccncc3)[nH]c12` [Example 36] gave a pIC50 at IκB kinase of 4.44.

As for `CSCC[C@H](NC(=O)c1ccc2[nH]c(-c3ccncc3)nc2c1)C(N)=O` [Example 107], the inhibition at 100 µM on casein kinase II (CK II) amounted to 92%; in data set [1] it was 0%. In addition, the pIC50 against IκB kinase was 6.00. In the data set on protein kinase C (PKC), the PKC % inhibition came out at 13%.

With `CC(C)(C)c1ccccc1SC[C@H](NC(=O)c1ccc2[nH]c(-c3ccncc3)nc2c1)C(=O)O` [Example 112], the results for the inhibition at 100 µM (against casein kinase II (CK II); in data set [1]) were 17% and 24%, respectively. Besides, the pIC50 on IκB kinase is 4.60. Besides, the PKC % inhibition in the data set with protein kinase C (PKC) turned out to be 7%.

On to `Nc1nnc([C@H](CCc2ccccc2)NC(=O)c2ccc3[nH]c(-c4ccncc4)nc3c2)o1` [Example 179, 2-pyridin4-yl-1H-benzimidazole-5-carboxylic acid [1-(5-amino-[1,3,4]oxadiazol-2-yl)-3-phenylpropyl]amide], for which the melting point was 160 °C (dec.). This compound showed a pIC50 against IκB kinase of 6.37.

Regarding `O=C(N[C@@H](CCc1ccccc1)c1nnco1)c1ccc2[nH]c(-c3ccncc3)nc2c1` [Example 180, 2-pyridin-4-yl-1H-benzimidazole-5-carboxylic acid (1-[1,3,4]oxadiazol-2-yl-3-phenylpropyl)amide], the melting point is 103 °C (dec.). Besides, at IκB kinase, the pIC50 was 6.21.

For `O=C(N[C@@H](CCc1ccccc1)c1nnc(NS(=O)(=O)c2ccccc2)o1)c1ccc2[nH]c(-c3ccncc3)nc2c1` [Example 191], the melting point is 220 °C (dec.). For the same compound, the pIC50 on IκB kinase is 6.92.

On to `CNC(=O)Nc1nnc([C@H](CCc2ccccc2)NC(=O)c2ccc3[nH]c(-c4ccncc4)nc3c2)o1` [Example 192, 2-pyridin-4-yl-1H-benzimidazole-5-carboxylic acid {1-[5-(3-methylureido)-[1,3,4]oxadiazol-2-yl]-3-phenylpropyl}amide], for which, on IκB kinase, the pIC50 is 6.44.
